Test results as given in PubChem BioAssay (NCI).
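Interpolation was linear, between the two tested concentrations surrounding the appropriate level; five concentrations were tested over 48 hours in 96-well plates. GI50 marks 50% less growth. TGI denotes the concentration required for complete inhibition of growth.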

Tested on: CAKI-1 renal
Assay: DTP human tumour cell line panel, 48 h

SMILES	GI50	TGI
COc1cc2c3c(n(CCCN(CCO)CCO)c(=O)c2cc1OC)-c1cc2c(cc1C3=O)OCO2	< 0.01 µM	< 0.018 µM
CNCCn1c(=O)c2cc(OC)c(OC)cc2c2cnc3cc4c(cc3c21)OCO4	< 0.01 µM	0.128 µM
C=C(C)[C@@H]1CC[C@]2(C)[C@H](CC[C@@H]3[C@@H]([C@@](C)(O)CCC=C(C)C)CC[C@]32C)[C@@]1(C)CCC(=O)O	13.9 µM	27.7 µM
Cn1cc(S(=O)(=O)N2CCC3=Cc4c(cnn4-c4ccc(F)cc4)C[C@]3(C(=O)c3cc(C(F)(F)F)ccn3)C2)cn1	60.1 µM	> 100 µM
c1ccc(NCCSc2nc3ccccc3s2)cc1	–	> 100 µM
Oc1ccc(Oc2cnc3ccccc3n2)cc1	29.5 µM	81.1 µM
Cc1ccc2occ/c(=N\Nc3ccccc3)c2c1	–	> 100 µM
CC(=O)NC1CONC1=O (stereo not given)	–	> 100 µM
Oc1ccc(N=Nc2nccs2)c(O)c1	0.417 µM	2.37 µM
COc1ccc2c(c1)C(C)Cc1c(ncnc1-n1cnc3ccccc31)N2C (stereo not given)	0.373 µM	17.2 µM
COc1ccc(-c2noc(N)c2-c2cc(OC)c3c(c2)OCO3)cc1	3.21 µM	> 100 µM
CC(Cl)CN1c2ccccc2Sc2ccc(Cl)cc21 (stereo not given)	–	> 10 µM
NCCCn1c2c(c3ccccc3c1=O)C(=O)c1ccccc1-2	0.0435 µM	0.364 µM
O=C1c2ccccc2C(=O)c2c(NCCN=Cc3ccccc3O)cccc21	0.434 µM	2.8 µM
Oc1ccc(/C=C/c2cc(O)cc3c2C(c2cc(O)cc(O)c2)C(c2ccc(O)c(O)c2)O3)cc1 (stereo not given)	–	98.1 µM
CC1(C)N=C(N)N=C(N)N1c1cccc(OCCOc2cccc([N+](=O)[O-])c2)c1	> 100 µM	> 100 µM
COc1ccc(/C=C/c2cnccn2)cc1OC	–	> 10 µM
O=C(NC1CCCCC1)c1ccc(Nc2ncnc3c2cnn3-c2ccccc2)cc1	14 µM	> 100 µM
N#CC(C#N)=C1CCCOc2c1ccc1ccccc21	> 100 µM	> 100 µM
O=[N+]([O-])c1ccc(Sc2c3ccccc3nc3ccccc23)cn1	–	11.7 µM
COc1cc2c3c(n(CCCN(C)CCO)c(=O)c2cc1OC)-c1cc2c(cc1C3=O)OCO2	0.936 µM	> 100 µM
C=C1C(O)C2C(=C(C)C13CC3)C(=O)C(C)(C)C2OC (stereo not given)	71.8 µM	> 100 µM
COc1cc(C(=O)O[C@H](C(N)=O)[C@]2(C)CO2)c2cccc(C)c2c1	< 0.0211 µM	–
COc1ccc(-c2ccc(NNC(=O)c3ccc(F)cc3)nn2)cc1OC	34.3 µM	> 100 µM
C=C1C(=O)OC2C1CC(OC(C)=O)/C(C)=C/CCC1(C)OC21 (stereo not given)	–	> 100 µM
COc1cc(/C=C/C(=O)C(C(=O)/C=C/c2ccc(OC(=O)CCNC34CC5CC(CC(C5)C3)C4)c(OC)c2)C(=O)CCNC23CC4CC(CC(C4)C2)C3)ccc1OC(=O)CCNC12CC3CC(CC(C3)C1)C2 (stereo not given)	5.72 µM	> 100 µM
CC(=O)[CH-]C(=O)c1ccccc1.CC(=O)[CH-]C(=O)c1ccccc1.O=S(=O)([O-])c1cc([O-])c2c([O-])cc(S(=O)(=O)[O-])cc2c1.[Na+].[Ti+4]	> 100 µM	> 100 µM
Cc1cc(NCCCCNc2ccnc3cc(Cl)ccc23)nc(Nc2ccc(C(=O)N3CCCCC3)cc2)n1	1.75 µM	3.47 µM
Cc1c2c(C(N)=O)nccc2c(C)c2c1c1ccccc1n2Cc1ccccc1	–	59 µM

Tested on: OVCAR-8 ovarian
Assay: DTP human tumour cell line panel, 48 h

SMILES	GI50	TGI
COc1ccc(-c2nn(-c3cccc(Cl)c3)cc2-c2nc(N)[nH]c(=O)c2C#N)cc1	10.1 µM	60.3 µM
COC(=O)C(=O)CC(=O)c1cccc(OC)c1	–	> 100 µM
COc1cc2c3c(n(CCCN(CCO)CCO)c(=O)c2cc1OC)-c1cc2c(cc1C3=O)OCO2	0.221 µM	6.01 µM
CNCCn1c(=O)c2cc(OC)c(OC)cc2c2cnc3cc4c(cc3c21)OCO4	< 0.01 µM	1.34 µM
